Assays:
[1] = tested on: osteoarthritis; test: Treating osteoarthritis in a subject (experiments of prior application Ser. No. 13/428,996 and present application); format: in vivo; details: stated without data; based on prior and present application
Description: Prior experiments conducted by the present inventors, such as those disclosed in the co-pending U.S. application Ser. No. 13/428,996 (the entirety of which is incorporated herein by reference) and experiments provided hereinbelow, reveal that several short, synthetic PEDF peptides derived from the 39-mer, are capable of treating osteoarthritis in a subject.

[2] = tested on: chondrocytes in damaged articular cartilage (MIA-induced osteoarthritis); test: MIA-induced knee osteoarthritis in rats: chondrocyte proliferation and cartilage regeneration in vivo; parameters: species or system Sprague-Dawley rats; details: for BrdU/Aggrecan Labeling Index (%): rat MIA knee, 0.2 mM peptide in 25 μl of 5% HA (HA group: 5% HA alone), intra-articular on day 8, 12, 16, 20 post-MIA, mean±SEM, *P<0.0001 vs vehicle/HA; for H&E histology of knee joint (morphological changes associated with osteoarthritis): specimens day-18 and day-25 post-MIA injection, FIG. 1; for Chondrocytes in cartilage layers, microscopic images: knee specimens 25 days after MIA injection, FIG. 2
Experimental: Animal models of osteoarthritis were established by intra-articular injection of MIA. Specifically, adult 10-wk-old male Sprague-Dawley rats (initial body wt=312±11 g) were anesthetized with an intraperitoneal injection of xylazine (10 mg/kg), followed by a single intra-articular injection of MIA (1 mg of MIA in 25 μl of sterile saline) in the right knee. In particular, the MIA solution was injected through the patellar ligament by using a 27G needle with the leg flexed at a 90° angle at the knee.
For the detection of in vivo cell proliferation, BrdU was reconstituted in DMSO as stock (80 mM). 150 μl of BrdU mixed with 350 μl of PBS was intraperitoneally injected into rat at 16 hours prior to euthanasia. DNA synthesis was then assessed by BrdU labeling with anti-BrdU antibodies according to procedures set forth below.
The knee joints were dissected and the surrounding soft tissue was removed. Specimens were fixed in 4% paraformaldehyde and then decalcified with Shandon TBD-2 decalcifier (Thermo Scientific; Logan, Utah). The joints were then sectioned mid-sagittally and embedded in paraffin blocks. Sections (5 μm in thickness) were longitudinally cut.
Before use, fixed samples were de-pa raffinized in xylene and rehydrated in a graded series of ethanol. The sample were then stained with hematoxylin and eosin (H&E) or used for immunohistochemical examination. 20 sections per knee were carefully prepared so as to include the most severely degenerated area.
Paraffin-embedded joint specimens were deparaffinized in xylene and rehydrated in a graded series of ethanol. Deparaffinized specimens were then exposed to 1 N HCl at room temperature for 1 hour for subsequent immunofluorescence study.
(§1) For immunofluorescence study, the specimens were blocked with 10% goat serum and 5% BSA for 1 hour. Immunostaining was done using primary antibodies against aggrecan (1:100 dilution), type II collagen (1:100 dilution), and BrdU (1:100 dilution) at 37° C. for 2 hours, followed by incubation with the appropriate rhodamine- or FITC-conjugated donkey IgG for 1 hour at room temperature. Nuclei were located by counterstaining with Hoechst 33258 for 7 min. Images were captured using a Zeiss epifluorescence microscope with a CCD camera. Blinded quantification was performed in triplicate by manually counting cells from 20 randomly-selected fields in each section.
Knee osteoarthritis is a common chronic degenerative disease characterized by loss of articular cartilage. Injection of mono-iodoacetate (MIA), an inhibitor of glycolysis, into the femorotibial joint space of rodents has been reported to induce loss of articular cartilage similar to that noted in human OA. It has been established that extensive chondrocyte degeneration/necrosis usually arises at 7 days after MIA injection. Therefore, PEDF peptide treatment was started on day 8 post-MIA injection, so as to elucidate whether the present PEDF peptides promote cartilage regeneration.
Rats were randomly assigned to 6 experimental groups (n=6, each group) and treated as follows. In the HA group, rats received 25 μl of 5% hyaluronic acid injection. In the Vehicle/HA group, rats were treated with DMSO vehicle re-dissolved in 25 μl of 5% HA. As to the 29-mer/HA, 24-mer/HA, 20-mer/HA, and 18-mer/HA groups, rats received 0.2 mM PEDF peptide (29-mer, 24-mer, 20-mer or 18-mer) re-dissolved in 25 μl of 5% HA. Treatments were applied by way of a single intra-articular injection once on day-8, 12, 16 and 20, respectively, post-MIA injection.
Quantitative analysis was performed as described above from 3 sections per knee joint specimen, and 6 rats at each group. The BrdU/aggrecan labeling index (%) was computed as the number of BrdU- and aggrecan-double positive cells divided by the total number of aggrecan-positive cells. Results are summarized in Table 1; *P<0.0001 versus the vehicle/HA group.

[3] = tested on: primary chondrocytes from rat articular cartilage; test: Primary articular chondrocyte proliferation in vitro; format: cell-based, Sprague-Dawley rats; details: 50 nM peptide; for Aggrecan Labeling Index (%): rat articular chondrocyte monolayer culture, 12 days, mean±SEM, *P<0.01 vs untreated
Experimental: Articular cartilage was harvested from femoral condyles (the anterior, posterior and lateral areas) of adult 8-wk-old male Sprague-Dawley rats. Care was taken to avoid contamination with synovium and to disruption of the bony structures during the sampling process. Dissected tissue was cut into small (about 0.5 mm^3) pieces and digested sequentially by pronase (70 U/ml, 1 hour at 37° C.) and collagenase (300 U/ml, 3 hours at 37° C.). After digestion, collagenase was removed by a single wash in sterile phosphate-buffered saline (PBS), followed by two further washes in DMEM supplemented with 2% FBS. For primary culture, 6000 trypan blue-negative cells per well were plated on 10 μg/ml fibronectin-coated coverslips in a 6-well plate in 10% FBS-DMEM supplemented with 1% penicillin/streptomycin. The next day, the medium was changed to the standard expansion medium (consisting of 10% FBS-DMEM, 0.1 mM ascorbic acid, 0.5 mg/ml L-glucose, 100 mM HEPES, 1 mM sodium pyruvate, 2 mM L-glutamine and antibiotics) supplemented with or without 50 nM PEDF peptide). The medium was replaced every 3 days for 12 days.
as §1
Primary chondrocytes were isolated from rat articular cartilage and cultivated in the presence or absence of the present PEDF peptides to elucidate the stimulating effect of the present PEDF peptides on chondrocyte proliferation.
By contrast, in the vehicle group, the colonies are much smaller in the absence of PEDF peptides. The chondrocyte identity of cells within the colony was confirmed by aggrecan immunostaining (FIG. 4A, inserts). The level of aggrecan-positive cells in the monolayer culture (FIG. 4B) were quantified from 20 randomly selected fields, and the aggrecan labeling index (%) was computed as the number of aggrecan-labeled cells divided by the total number of cells (nucleus labeling by Hoechst 33258). Results are summarized in Table 2; *P<0.01 versus untreated cells.

[4] = tested on: mesenchymal stem cells (MSCs); test: Chondrogenic differentiation of MSCs: aggrecan immunostaining; format: cell-based, Sprague-Dawley rats; details: rat MSCs in chondrogenic medium plus 50 nM peptide, 1 week; mean±SEM; *P<0.0001 vs vehicle
Experimental: Adult 8-wk-old male Sprague-Dawley rats were anesthetized with an intraperitoneal injection of xylazine (10 mg/kg). Femurs were aseptically harvested, washed in a mixture of PBS and antibiotics for 5 minutes, dissected of all soft tissue, transected at their epiphysis, and their marrow cavity was rinsed repeatedly with a mixture of heparin and DMEM. The harvested cells were centrifuged at 1000×g for 10 minutes. Cell pellets were resuspended with DMEM, and then the cell suspension was transferred to a 15-ml centrifuge tube containing 5 ml of Percoll (1.073 g/ml). After centrifugation at 1500×g for 30 minutes, the mononuclear cells in the middle layer were separated, washed three times with PBS and then resuspended in low-glucose DMEM with 10% heat-inactivated FBS and 1% penicillin/streptomycin. Cells were then incubated with 95% air and 5% CO2 at 37° C.; the medium was replaced every 4 days. Unattached cells were discarded and adherent cells were retained. The primary mesenchymal stem cells (MSCs) grew to approximately 80%-90% confluence after culture for 1 week.
For inducing the chondrogenic differentiation of MSCs, 5×10^5 expanded MSCs were exposed to chondrogenic medium (high-glucose DMEM with 100 nM dexamethasone, 0.17 mM ascorbic acid-2 phosphate, 10 μg/ml of insulin, 5 μg/ml of transferrin, 5 ng/ml selenium, 1 mM sodium pyruvate, 2 mM L-glutamine, and 2% FBS) supplemented with 10 ng/ml TGF-β2 (R&D Systems; Minneapolis, Minn.). […]
For immunofluorescence study, the specimens were blocked with 10% goat serum and 5% BSA for 1 hour. […] Blinded quantification was performed in triplicate by manually counting cells from 20 randomly-selected fields in each section.
Immunostaining for aggrecan and type II collagen was also performed to investigate the pro-differentiation activity of the present PEDF peptides. The level of aggrecan-positive cells were quantified from 20 randomly selected fields, and the aggrecan labeling index (%) was computed as the number of aggrecan-labeled cells divided by the total number of cells (nucleus labeling by Hoechst 33258). […]

Row | Substance | Effectiveness in treating osteoarthritis in a subject [1] | BrdU/Aggrecan Labeling Index (%) [2] | Aggrecan Labeling Index (%) [3] | Aggrecan Labeling Index (%) [4] | also measured
1 | ALSALSLGAEQRTESIIHRALYYDLISSPDIHGT [34-mer, corresponds to residues 88-121 of human PEDF] | effective |  |  |  | 
2 | EQRTESIIHRALYYDLIS (optionally in 5% hyaluronic acid) [18-mer, peptide lacking the SLGA residues; /HA = re-dissolved in 5% hyaluronic acid, reference compound] | fails to elicit any protection against osteoarthritis | does not elicit such promoting effect | 31.8 ± 2.6% |  | BrdU/Aggrecan Labeling Index (%) ([2]; listed as 18-mer/HA): 0.67 ± 0.33%; H&E histology of knee joint (morphological changes associated with osteoarthritis) [2]: morphological changes associated with osteoarthritis (including the reduction of cartilage, the superficial fibrosis of cartilage and subchondral bone collapse) is noted
3 | EQRTESIIHRALYYDLISSPDIHGT [25-mer, peptide lacking the SLGA residues] | ineffective |  |  |  | 
4 | SLGAEQRTESIIHRALYYDL (optionally in 5% hyaluronic acid) [20-mer, residues 93-112 of human PEDF; /HA = re-dissolved in 5% hyaluronic acid] |  | 17.5 ± 2.7* % | 50.1 ± 3.6* % | 78.7 ± 3.8* % | Aggrecan-positive cells among all cells (aggrecan/Hoechst 33258 dual staining) ([2]; FIG. 3 middle panels): over 95%; Chondrocytes in cartilage layers, microscopic images [2]: occupation of large numbers of newly generated chondrocyte throughout the cartilage; H&E histology of knee joint (morphological changes associated with osteoarthritis) [2]: the cartilage surface is smoother and the cartilage and subchondral bone are relatively integral; Aggrecan-positive signals in cartilage (immunostaining) ([2]; superficial, transitional and deep zone, vs vehicle-treated knee, FIG. 3 left): heavily accumulated; Numbers of BrdU-positive cells ([2]; vs vehicle/HA group, FIG. 3 right panels): increased significantly; Chondrocyte growth and colony formation ([3]; vs vehicle group, FIG. 4A): chondrocytes grew faster and aggregated into huge three dimensional colonies
5 | SLGAEQRTESIIHRALYYDLISSP (optionally in 5% hyaluronic acid) [24-mer, residues 93-116 of human PEDF; /HA = re-dissolved in 5% hyaluronic acid] |  | 16.0 ± 2.03* % | 50.0 ± 2.9* % | 78.8 ± 4.3* % | 
6 | SLGAEQRTESIIHRALYYDLISSPDIHGT (optionally in 5% hyaluronic acid) [29-mer, residues 93-121 of human PEDF; /HA = re-dissolved in 5% hyaluronic acid] |  | 15.0 ± 2.38* % | 52.2 ± 5.2* % | 76.8 ± 5.0* % | Chondrocytes in cartilage layers, microscopic images [2]: occupation of large numbers of newly generated chondrocyte throughout the cartilage
7 | hyaluronic acid [HA, reference compound] |  | 0.71 ± 0.28% |  |  | 

Reference: patent publication US9777048B2, “Use of PEDF-derived polypeptides for treating osteoarthritis” (MacKay Memorial Hospital, priority 2012, dated 2017)
